Reference: patent publication US20100152114A1, “Antioxidant activity of GH-RH Antagonists” (priority 2008, published 2010)
Ends that are not written are not given here.

Assays:
Format in all cases: cell-based
[1] = test system: Proliferating Cell Nuclear Antigen (PCNA); assay: Western Blot of PCNA expression in LNCaP cells; details: control R.I: 0.656
Procedure: (B) is a Western Blot analysis of expression of the Proliferating Cell Nuclear Antigen (PCNA) in LNCaP prostate cancer cell line after exposure to GHRH antagonist JMR-132, and GHRH(1-29)NH2 n=2.
(§1) Prostate cancer cells LNCaP and breast cancer cells MCF-7 were obtained from American Type Culture Collection (Manassas, Va.) and were cultured as described previously. The antibodies that detect P53, PCNA, GPX1, SOD1, NQ01, Thioredoxin 1, COX2 and COX IV were purchased from Cell Signalling (Danvers, Mass.). The antibodies that detect β actin, NFκB50, pNFκB50, caspase 3 and its cleaved form were purchased from Santa Cruz Biotechnology (Santa Cruz, Calif.). The antibodies against GHRH-R (batch number: SV95) and SV1 (batch number: JH 2317/5) were raised in our laboratory. The signals for the immunoreactive proteins were visualized in a Chemi Doc XRS system (Biorad, Hercules, Calif.). The western Blot assay as well the quantification analysis of the blots was performed as described previously.
LNCaP prostate cancer cells were exposed to two concentrations of GHRH(1-29)NH2 and JMR-132. […] However, GHRH (1-29)NH2 at 0.1 μM concentration stimulated the proliferation rate of LNCaP cells by 13%. GHRH antagonist JMR-132 at the doses of 0.1 μM and 1 μM decreased the proliferation of LNCaP prostate cancer cell line by 32% and 37% respectively. In addition, the expression levels of the PCNA (M.W: 36 KDa) were evaluated by Western Blot. The PCNA protein expression was increased in the cells exposed to 0.1 μM and 1 μM of GHRH (1-29)NH2 (R.I: 0.77 and 0.925 respectively) and decreased in the cells that incubated with 0.1 μM of GHRH antagonist JMR-132. (R.I: 0.495) as compared to control (R.I: 0.656).

[2] = test system: wild-type p53 tumor suppressor protein; assay: Western Blot of wild-type p53 expression in LNCaP cells; details: 72 hour exposure, control R.I: 0.436
Procedure: as §1
LNCaP prostate cancer cell line cultured in vitro was exposed to two concentrations of JMR-132 and GHRH(1-29)NH2 and the expression level of the p53 tumor suppressor protein (M.W: 53 KDa) was measured by Western Blot. The p53 protein expression was higher in the cells exposed to 0.1 μM and 1 μM GHRH antagonist JMR-132 (R.I: 0.583 and 0.658 respectively) and lower in the cells incubated with 0.1 μM and 1 μM GHRH (1-29)NH2 (R.I: 0.376 and 0.264 respectively) as compared to control (R.I: 0.436)

cleaved caspase 3 = assay: Western Blot of cleaved caspase 3 in LNCaP cells; details: 1 μM, 72 hours, control R.I: 0.320
Procedure: (A): is a Western Blot analysis of expression of the phosphorylated NFκB p50, caspase 3 protein and its cleaved form in LNCaP prostate cancer cell line after exposure to GHRH antagonist JMR-132 and GHRH (1-29)NH2. n=2
as §1
LNCaP cells cultured in vitro were exposed to 1 μM GHRH antagonist JMR-132 and 1 μM GHRH(1-29)NH2. The expression levels of NFκB p50, the phosphorylated NFκB p50, caspase 3 (M.W: 35 KDa) and the cleaved caspase 3 were detected by Western Blot. […]

COX 2 = assay: Western Blot of COX 2 in LNCaP cells; details: 1 μM, 72 hour incubation, control R.I: 0.822
Procedure: (§2) FIG. 4: is a Western Blot analysis of expression of the enzyme COX2 and COXIV enzymes in LNCaP prostate cancer cell line after 72 hour incubation with GHRH antagonist JMR-132 and GHRH(1-29)NH2. n=2
as §1
(§3) After LNCaP prostate cancer cells cultured in vitro were exposed to 1 μM GHRH antagonist JMR-132 and GHRH(1-29)NH2, the expression levels of the enzymes COX 2 and COX IV were measured by Western Blot. […]

COX IV = assay: Western Blot of COX IV in LNCaP cells; details: 1 μM, 72 hour incubation, control R.I: 0.139
Procedure: as §2, §1, §3

protein carbonyl groups = assay: Protein oxidation: protein carbonyl immunoblot in LNCaP cells; details: 1 μM, 72 hour, control R.I: 5.846
Procedure: The detection of the carbonyl groups, the nitrotyrosine and the lipid peroxidation was performed with the Oxiselect Protein carbonyl Immunoblot, the Oxiselect Nitrotyrosine Immunoblot Kit and the Oxiselect Malondialdehyde Immunoblot Kit respectively (Cell Biolabs, San Diego, Calif.) according the manufacturer s instructions. The detection of the lipid peroxidation using a primary rabbit anti-MDA antibody (Cell Biolabs, San Diego, Calif.) according the manufacturer' instructions. The β-actin signal was used as control.
LNCaP prostate cancer cell line cultured in vitro were exposed to 1 μM JMR-132 or 1 μM GHRH(1-29)NH2. The levels of the oxidation of the proteins were determined by the detection of the N-nitrotyrosine and the protein carbonyl groups. Both were elevated in the cells exposed to GHRH (1-29)NH2 (R.I: 3.282, 7.415) and decreased in the cells incubated with GHRH antagonist JMR-132 (R.I: 1.251, 4.275), as compared to control (R.I: 2.903, 5.846). The levels of the lipid peroxidation, determined by the detection of the malondialdehyde (MDA), were increased in cells exposed to GHRH (1-29)NH2 (R.I:4.89) and decreased in cells incubated with GHRH antagonist JMR-132 (R.I: 2.973) as compared to control (R.I: 4.433). […]

Substance	PCNA protein expression (R.I) ([1]; 0.1 μM)	PCNA protein expression (R.I) ([1]; 1 μM)	p53 protein expression (R.I) ([2]; 0.1 μM)	p53 protein expression (R.I) ([2]; 1 μM)	expression of cleaved caspase 3 (R.I) (cleaved caspase 3)	COX 2 protein expression (R.I) (COX 2)	COX IV protein expression (R.I) (COX IV)	protein carbonyl groups level, protein oxidation (R.I) (protein carbonyl groups)
GHRH(1-29)NH2 (YADAIFTNSYRKVLGQLSARKLLQDIMSR-NH2; UniProt P01286 32-60, looked up, fragment) [Growth Hormone-Releasing Hormone (1-29) amide, agonist peptide used for comparison with the antagonist]	0.77	0.925	0.376	0.264	0.182	0.928	0.237	7.415
[PhAc^0-Tyr^1, D-Arg^2, Cpa^6, Ala^8, Har^9, Tyr(Me)^10, His^11, Abu^15, His^20, Nle^27, D-Arg^28, Har^29]hGH-RH(1-29)NH2 [JMR-132]	0.495	–	0.583	0.658	0.391	0.532	0.077	4.275
